{
  "source": "patent US20230340137A1",
  "about": "“METHODS, THERAPIES AND USES FOR TREATING CANCER” (PFIZER INC., priority 2020, published 2023)",
  "key": {"[1]": {"test_system": "adult patients with advanced multiple myeloma", "assay": "Phase 1 clinical study NCT03269136, patient response per IMWG criteria", "assay_type": "in vivo, human", "excerpt": "This Example illustrates an ongoing Phase 1 open-label, multicenter clinical study of PF-06863135 (BCMA×CD3 bispecific) as monotherapy and in combination with sasanlimab, lenalidomide or pomalidomide, in adult patients with advanced multiple myeloma who have relapsed from or are refractory to standard therapy. The study has been registered on ClinicalTrials.gov with identifier NCT03269136 and was first posted August 2017. Study results for Part 1 of the trial and additional arms for the study are described in this Example.\nPart 1 of the Study is the […] single agent dose escalation arm at the dose levels of 0.1, 0.3, 1, 3, 10, 30, and 50 μg/kg Q1W by intravenous (IV) administration, and at the dose levels of 80, 130, 215, 360, 600 and 1000 μg/kg Q1W by subcutaneous (SC) administration. Upon reaching maximum tolerated dose (MTD)/maximum administered dose (MAD), patients can be treated at a dose level selected from the foregoing dose levels described in this paragraph, and below the MTD/MAD fora Q2W administration, both IV and SC, to further support the recommended phase 2 dose (RP2D) decision. For the study, dose limiting toxicity observation period is set at 21 days for Q1W dosing and 28 days for Q2W dosing. The treatment cycle, aka cycle, for Q1W dosing would be 3 weeks, and for Q2W dosing would be four weeks.\nClinical Outcome of Part 1 of the Study. As of 15 Apr. 2020, a total of 23 patients were enrolled in Part 1 of the study and had been treated with PF-06863135 administered intravenously (IV) at 0.1 (N=2), 0.3 (N=3), 1 (N=2), 3 (N=3), 10 (N=2), 30 (N=5), and 50 (N=6) μg/kg. As of Aug. 21, 2020, a total of 30 patients were enrolled in Part 1 of the study and had been treated with PF-06863135 administered subcutaneously (SC) at 80 (N=6), 130 (N=4), 215 (N=4), 360 (N=4), 600 (N=6) and 1000 (N=6) μg/kg. Safety and efficacy data were available for in 23 IV and 30 SC treated patients per IMWG (International Myeloma Working Group) criteria.\nPart 1.1 of the Study is an alternative maintenance dose escalation arm for single agent PF-06863135. If excessive toxicity occurs or the maximum tolerated dose (MTD)/maximum administered dose (MAD) is reached at a dose level that is earlier than desired in Part 1 of the study described above, a priming dose will be administered one week prior to the day 1 cycle 1 administration of the dose (maintenance dose) at this dose level and for all subsequent dose levels in the dose escalation that may be initiated for Part 1.1. The priming dosing will be at a lower dose level than the maintenance dose.\nClinical outcome of Part 1.1 of the Study. As of Feb. 4, 2021, a total of 20 patients were enrolled and treatment in Part 1.1 of the Study, with cohort of 7 patients at a 600 μg/kg priming dose followed by 1000 μg/kg Q1W dosing, and a cohort of 13 patients at a 600 μg/kg priming dose followed by 1000 μg/kg Q2W dosing. The CRS in these two cohorts is described in Table 13. Introducing of priming dose decreased medium duration of CRS by 50%, from 4 days to 2 days. The dose frequency in part 1.1 of the study (Q1W v. Q2W) had no impact on the CRS. Patient response of Part 1.1 of the Study is described in Table 14."}, "[2]": {"assay": "Phase 1 clinical study NCT03269136, preliminary pharmacokinetic analysis", "assay_type": "in vivo, human", "conditions": "preliminary pharmacokinetic (PK) analysis", "protocol": "Therefore, a fixed dose is suitable for the dosing of PF-06863135. Based on the encouraging efficacy data and safety data obtained from Part I of Study, a promising RP2D for Part 2A of the study could be a fixed dose equivalent of 1000 μg/kg (ie, 76 mg) of PF-06863135 either in Q1W or Q2W. A fixed dose equivalent of 600 μg/kg (ie, 44 mg) will likely be used as a priming dose on cycle zero day 1. The initial dose of 44 mg serves as a priming dose and is designed to mitigate the CRS symptoms of the later 76 mg dose. […] Subsequently, the 44 mg (priming) and 76 mg (maintenance) were selected as the single agent RP2D dose. Patient will be administered a single priming dose of 44 mg SC of PF06863135, followed by maintenance dosing of 76 mg Q1W SC or 76 mg Q2W starting 7 days after the single priming dose."}, "[3]": {"conditions": "600 μg/kg priming, 1000 μg/kg Q1W SC, N = 7"}, "[4]": {"conditions": "600 μg/kg priming, 1000 μg/kg Q2W SC, N = 13"}},
  "data": [
    {"substance": "PF-06863135: heterodimeric humanized full-length bispecific antibody, one BCMA binding arm and one CD3 binding arm, modified human IgG2Δa Fc", "values": [
      {"measurement": "patients achieving a complete response", "setting": "[1]; 50 μg/kg IV", "value": 1, "unit": "patient"},
      {"measurement": "OR (percent)", "setting": "[1]; 215 μg/kg SC, N = 4", "value": "(75%)"},
      {"measurement": "OR (responders/patients)", "setting": "[1]; 215 μg/kg SC, N = 4", "value": "3/4"},
      {"measurement": "PR (number of patients)", "setting": "[1]; 215 μg/kg SC, N = 4", "value": 1},
      {"measurement": "sCR (number of patients)", "setting": "[1]; 215 μg/kg SC, N = 4", "value": 2},
      {"measurement": "OR (percent)", "setting": "[1]; 360 μg/kg SC, N = 4", "value": "(75%)"},
      {"measurement": "OR (responders/patients)", "setting": "[1]; 360 μg/kg SC, N = 4", "value": "3/4"},
      {"measurement": "PD (number of patients)", "setting": "[1]; 360 μg/kg SC, N = 4", "value": 1},
      {"measurement": "VGPR (number of patients)", "setting": "[1]; 360 μg/kg SC, N = 4", "value": 2},
      {"measurement": "sCR (number of patients)", "setting": "[1]; 360 μg/kg SC, N = 4", "value": 1},
      {"measurement": "OR (percent)", "setting": "[1]; 600 μg/kg SC, N = 6", "value": "(67%)"},
      {"measurement": "OR (responders/patients)", "setting": "[1]; 600 μg/kg SC, N = 6", "value": "4/6"},
      {"measurement": "PD (number of patients)", "setting": "[1]; 600 μg/kg SC, N = 6", "value": 1},
      {"measurement": "VGPR (number of patients)", "setting": "[1]; 600 μg/kg SC, N = 6", "value": 2},
      {"measurement": "sCR (number of patients)", "setting": "[1]; 600 μg/kg SC, N = 6", "value": 2},
      {"measurement": "CR (number of patients)", "setting": "[1]; [3]", "value": 2},
      {"measurement": "OR (percent)", "setting": "[1]; [3]", "value": "(57%)"},
      {"measurement": "OR (responders/patients)", "setting": "[1]; [3]", "value": "4/7"},
      {"measurement": "PR (number of patients)", "setting": "[1]; [3]", "value": 1},
      {"measurement": "VGPR (number of patients)", "setting": "[1]; [3]", "value": 1},
      {"measurement": "OR (percent)", "setting": "[1]; [4]", "value": "(54%)"},
      {"measurement": "OR (responders/patients)", "setting": "[1]; [4]", "value": "7/13"},
      {"measurement": "PD (number of patients)", "setting": "[1]; [4]", "value": 3},
      {"measurement": "PR (number of patients)", "setting": "[1]; [4]", "value": 3},
      {"measurement": "VGPR (number of patients)", "setting": "[1]; [4]", "value": 4},
      {"measurement": "CR (number of patients)", "setting": "[1]; 1000 μg/kg SC, N = 6", "value": 1},
      {"measurement": "OR (percent)", "setting": "[1]; 1000 μg/kg SC, N = 6", "value": "(83%)"},
      {"measurement": "OR (responders/patients)", "setting": "[1]; 1000 μg/kg SC, N = 6", "value": "5/6"},
      {"measurement": "PD (number of patients)", "setting": "[1]; 1000 μg/kg SC, N = 6", "value": 1},
      {"measurement": "PR (number of patients)", "setting": "[1]; 1000 μg/kg SC, N = 6", "value": 1},
      {"measurement": "VGPR (number of patients)", "setting": "[1]; 1000 μg/kg SC, N = 6", "value": 3},
      {"measurement": "clinical efficacy", "setting": "[1]; 600 and 1000 μg/kg SC", "value": "seen in most patients"},
      {"measurement": "subjects with best response of stable disease", "setting": "[1]; IV cohorts (0.3-50 μg/kg)", "value": "Ten"},
      {"measurement": "patients achieving a minimal response", "setting": "[1]; IV cohorts, at 3 μg/kg and 50 μg/kg IV", "value": 2, "unit": "patients"},
      {"measurement": "body weight as factor on PF-06863135 exposure", "setting": "[2]", "value": "not a clinically relevant factor"}
    ]}
  ]
}
